Experimental data taken from US20200172473A1, “DUAL MODULATORS OF FARNESOID X RECEPTOR AND SOLUBLE EPOXIDE HYDROLASE” (JOHANN WOLFGANG GOETHE-UNIVERSITÄT FRANKFURT AM MAIN, priority 2017, published 2020).
In brackets after ≈: the same amount, converted by molar mass. Entries after “also recorded” stand apart in the source; their conditions may differ. Like-named read-outs stand apart in the source and are kept apart here.

Key:
RXRα = target: T1, RXRα (Homo sapiens, UniProt P19793); test: Gal4-hybrid reporter gene assay RXRα in HEK293T cells; format: cell-based; conditions: 10 μM
T1 construct: hRXRα-P19793, residues 225-462; expressed in transfected cells; host or cells: HEK293T
T1 sequence (P19793 225-462): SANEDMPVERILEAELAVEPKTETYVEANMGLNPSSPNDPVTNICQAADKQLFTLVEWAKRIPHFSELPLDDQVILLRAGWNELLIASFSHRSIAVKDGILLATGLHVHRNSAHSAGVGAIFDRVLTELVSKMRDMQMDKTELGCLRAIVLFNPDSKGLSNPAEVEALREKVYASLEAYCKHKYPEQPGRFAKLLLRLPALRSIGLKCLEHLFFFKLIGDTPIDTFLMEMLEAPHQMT
From the text: (§1) Hybrid reporter gene assays for PPARα/γ/δ, LXRα/β, RXRα/β/γ, RARα/β/γ, VDR and PXR Plasmids: The Gal4-fusion receptor plasmids pFA-CMV-hPPARα-LBD^52, pFA-CMV-hPPARγ-LBD^52, pFA-CMV-hPPARδ-LBD^52, pFA-CMV-hLXRα-LBD^32 and pFA-CMV-hLXRβ-LBD^32 have been reported previously. […] Frame and sequence of all fusion receptors were verified by sequencing. pFR-Luc (Stratagene) was used as reporter plasmid and pRL-SV40 (Promega) for normalization of transfection efficiency and cell growth.
(§2) Assay procedure: HEK293T cells were grown in DMEM high glucose, supplemented with 10% FCS, sodium pyruvate (1 mM), penicillin (100 U/mL) and streptomycin (100 μg/mL) at 37° C. and 5% CO2. The day before transfection, HEK293T cells were seeded in 96-well plates (2.5·10^4 cells/well). Before transfection, medium was changed to Opti-MEM without supplements. Transient transfection was carried out using Lipofectamine LTX reagent (Invitrogen) according to the manufacturer's protocol with pFR-Luc (Stratagene), pRL-SV40 (Promega) and pFA-CMV-hRXRα-LBD. 5 h after transfection, medium was changed to Opti-MEM supplemented with penicillin (100 U/mL), streptomycin (100 μg/mL), now additionally containing 0.1% DMSO and the respective test compound or 0.1% DMSO alone as untreated control. […] Luminescence was measured with an Infinite M200 luminometer (Tecan Deutschland GmbH). […]

aqueous solubility = format: physicochemical; conditions: LLOQ 0.1 μg/mL
[1] = in vivo pharmacokinetic evaluation in mice; set-up: species or system mouse; conditions: single dose p.o. 10 mg/kg body weight
Protocol: Three additional animals served as vehicle control.
Food and water were available ad libitum.
A part of the blood was centrifuged (6000 rpm, 10 min, +4° C.) to obtain plasma for quantification of EET/DHET ratio and stored at −80° C. until further evaluation. For liver collection, mice were sacrificed by cervical dislocation after the last blood sampling (8 h post dose). Complete liver was immediately snap-frozen and stored at −80° C. until further evaluation. Plasma and liver were equally obtained from three control mice which received oral application of the vehicle (1% HPMC/Tween 80 (99:1)).

HepG2 cells = test: WST-1 cytotoxicity assay; format: cell-based; conditions: up to 100 μM
[2] = tested on: PPARγ target genes CD36 and FAM3A; test: PPARγ target gene mRNA quantification (qRT-PCR) in HepG2 cells; format: cell-based; conditions: HepG2, 1 μM
LXRα = target: T2, LXRα (Homo sapiens, UniProt Q13133); test: Gal4-hybrid reporter gene assay LXRα in HEK293T cells; format: cell-based; conditions: 10 μM; printed as both LXR subtypes
T2 construct: pFA-CMV-hLXRα-LBD; expressed in transfected cells; host or cells: HEK293T
T2 sequence (Q13133 209-447 limits assumed): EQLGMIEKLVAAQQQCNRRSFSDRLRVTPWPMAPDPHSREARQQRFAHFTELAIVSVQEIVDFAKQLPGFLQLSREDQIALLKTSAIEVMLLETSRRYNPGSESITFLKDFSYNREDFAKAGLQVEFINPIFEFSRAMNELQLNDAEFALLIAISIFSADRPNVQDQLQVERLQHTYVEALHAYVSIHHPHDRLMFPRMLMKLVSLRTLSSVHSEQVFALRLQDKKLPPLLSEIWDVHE
From the text: as §1, §2

FXR target genes = tested on: FXR target genes
Protocol: Data was analyzed according to the 2^ΔΔCt method and all results were normalized to the values of the house-keeping gene glycerinaldehyde 3-phosphate dehydrogenase (GAPDH). Gene expression of vehicle treated control cells was defined as 100%.
Two micrograms of total RNA were extracted from HepG2 cells by the Total RNA Mini Kit (R6834-02, Omega Bio-Tek, Inc., Norcross, Ga., USA). […] FXR target gene expression was evaluated by quantitative real time PCR analysis with a StepOnePlus™ System (Life Technologies, Carlsbad, Calif., USA) using PowerSYBRGreen (Life Technologies; 12.5 μL per well). The primers are listed in the supporting information. Each sample was set up in duplicates and repeated in at least three independent experiments. The expression was quantified by the comparative ΔΔCt method and glycerinaldehyde 3-phosphate dehydrogenase (GAPDH) served as reference gene.

[3] = tested on: related nuclear receptors (PPARs, LXRs, RXRs, RARs, PXR and VDR); test: selectivity profile in Gal4-hybrid reporter gene assays (panel statement); format: cell-based, human; conditions: except PPARγ
From the text: as §1, §2

Q: For `CC(C)(C)c1ccc(C(=O)NCc2ccc(NS(C)(=O)=O)cc2Cl)cc1` [compound 57, 4-(tert-Butyl)-N-(2-chloro-4-(methylsulfonamido)benzyl)benzamide], which “activity on RXRα” value (RXRα) is on record?
A: inactive

Q: And the aqueous solubility (aqueous solubility)?
A: 1.5 µg/mL (≈ 3.8 µM)

Q: What about the Cmax [1] of the same compound?
A: 1182 ng/mL

Q: And the t1/2 [1]?
A: 42 min

Q: What about the tmax [1] of the same compound?
A: 30 min

Q: What about the “cytotoxicity in WST-1 assay” value (HepG2 cells) of the same compound?
A: no cytotoxic activity; also recorded: no cytotoxicity

Q: And the “CD36 mRNA expression compared to vehicle set as 100%” value [2]?
A: 119±33%

Q: And the “FAM3A mRNA expression compared to vehicle set as 100%” value [2]?
A: 112±12%

Q: What about the “activity on LXRα” value (LXRα) of the same compound?
A: inactive

Q: And the “BSEP mRNA expression compared to vehicle set as 100%” value (FXR target genes; HepG2, 0.1 μM, 8 or 16 h)?
A: 216±18%

Q: And the “FABP1 mRNA expression compared to vehicle set as 100%” value (FXR target genes; HepG2, 0.1 μM, 8 or 16 h)?
A: 183±34%

Q: What about the “FAS mRNA expression compared to vehicle set as 100%” value (FXR target genes; HepG2, 0.1 μM, 8 or 16 h) of the same compound?
A: 22±8%

Q: And the “FGF19 mRNA expression compared to vehicle set as 100%” value (FXR target genes; HepG2, 0.1 μM, 8 or 16 h)?
A: 309±101%

Q: What about the “PDK4 mRNA expression compared to vehicle set as 100%” value (FXR target genes; HepG2, 0.1 μM, 8 or 16 h) of the same compound?
A: 255±54%

Q: And the “PPARα mRNA expression compared to vehicle set as 100%” value (FXR target genes; HepG2, 0.1 μM, 8 or 16 h)?
A: 170±11%

Q: And the “SHP mRNA expression compared to vehicle set as 100%” value (FXR target genes; HepG2, 0.1 μM, 8 or 16 h)?
A: 242±61%

Q: And the “SREBP1c mRNA expression compared to vehicle set as 100%” value (FXR target genes; HepG2, 0.1 μM, 8 or 16 h)?
A: 49±17%

Q: What about the “BSEP mRNA expression compared to vehicle set as 100%” value (FXR target genes; HepG2, 1 μM, 8 or 16 h) of the same compound?
A: 222±20%

Q: What about the “FABP1 mRNA expression compared to vehicle set as 100%” value (FXR target genes; HepG2, 1 μM, 8 or 16 h) of the same compound?
A: 194±42%

Q: And the “FGF19 mRNA expression compared to vehicle set as 100%” value (FXR target genes; HepG2, 1 μM, 8 or 16 h)?
A: 325±77%

Q: And the “PDK4 mRNA expression compared to vehicle set as 100%” value (FXR target genes; HepG2, 1 μM, 8 or 16 h)?
A: 226±57%

Q: And the “PPARα mRNA expression compared to vehicle set as 100%” value (FXR target genes; HepG2, 1 μM, 8 or 16 h)?
A: 211±10%

Q: What about the “SHP mRNA expression compared to vehicle set as 100%” value (FXR target genes; HepG2, 1 μM, 8 or 16 h) of the same compound?
A: 317±78%

Q: And the “amplitude of induction of SHP, PPARα, FGF19, PDK4 and FABP1 relative to CDCA (1b)” value (FXR target genes; HepG2, % of CDCA (1b) at 50 μM)?
A: 50-80%

Q: What about the “activity on related nuclear receptors” value [3] of the same compound?
A: inactive
